Test results from DBAASP.
Converted amounts (≈) assume the structure as drawn. Each block holds one compound with its values, some of them ahead of it.

How the values were obtained:
Experiment in all cases: ≥ marks a high value that may be exact or a test limit, other limits are often not marked, values filed in µg/mL are converted to µM
[1] = test system: Pseudomonas aeruginosa H1001
[2] = test system: Staphylococcus aureus NCTC 10788
[3] = test system: Escherichia coli NCTC 10418
[4] = test system: Candida albicans NCPF 1467
[5] = test system: Micrococcus luteus ATCC 10240
[6] = test system: Escherichia coli BL21AI
[7] = test system: Escherichia coli ATCC 25922
[8] = test system: Saccharomyces cerevisiae
[9] = test system: Pseudomonas aeruginosa ATCC 15692
[10] = test system: Micrococcus luteus
[11] = test system: Staphylococcus aureus ATCC 25923
[12] = test system: Staphylococcus aureus
[13] = test system: Bacillus subtilis 168
[14] = test system: Pseudomonas aeruginosa
[15] = test system: Candida albicans F7-39/IDE99
[16] = test system: Micrococcus luteus CCM 144
[17] = test system: Escherichia coli B
[18] = test system: Staphylococcus aureus ATCC 29213
[19] = test system: Staphylococcus epidermidis ATCC 12228
[20] = test system: Salmonella enterica subsp. enterica serovar Pullorum C79-13
[21] = test system: Enterococcus faecalis ATCC 29212
[22] = test system: Salmonella enterica subsp. enterica serovar Typhimurium C77-31

- MIC [2]: 5 µM (≈ 10.1 µg/mL)
- MIC [3]: ≥ 200 µM
- MIC [4]: 20 µM (≈ 40.5 µg/mL)
SMILES: CC[C@H](C)[C@H](NC(=O)CNC(=O)[C@H](CO)NC(=O)[C@H](C)NC(=O)[C@@H](NC(=O)[C@H](Cc1cnc[nH]1)NC(=O)[C@@H]1CCCN1C(=O)[C@@H](NC(=O)[C@H](CC(C)C)NC(=O)[C@H](CO)NC(=O)[C@H](CC(C)C)NC(=O)[C@@H](N)Cc1ccccc1)[C@@H](C)CC)[C@@H](C)CC)C(=O)N[C@@H](C)C(=O)N[C@@H](CO)C(=O)N[C@@H](CC(C)C)C(=O)N[C@H](C(=O)N[C@@H](CCCCN)C(=O)N[C@@H](CC(N)=O)C(=O)N[C@@H](Cc1ccccc1)C(N)=O)C(C)C [FLSLIPHIASGIASLVKNF]

- MIC [2]: ≥ 216 µM
- MIC [3]: ≥ 54 µM
- MIC [4]: ≥ 108 µM
SMILES: CC[C@H](C)[C@H](NC(=O)[C@H](CO)NC(=O)[C@H](CC(N)=O)NC(=O)[C@@H](NC(=O)[C@H](Cc1ccccc1)NC(=O)[C@H](C)NC(=O)[C@H](CO)NC(=O)[C@H](C)NC(=O)[C@H](Cc1ccccc1)NC(=O)[C@H](CC(=O)O)NC(=O)[C@H](CCCCN)NC(=O)[C@H](C)NC(=O)CNC(=O)[C@@H](NC(=O)[C@H](CCCCN)NC(=O)[C@H](CC(C)C)NC(=O)[C@H](CCCCN)NC(=O)[C@H](CCC(=O)O)NC(=O)[C@H](CC(C)C)NC(=O)[C@H](Cc1ccccc1)NC(=O)CN)[C@@H](C)O)C(C)C)C(=O)N[C@@H](CCCCN)C(N)=O [GFLEKLKTGAKDFASAFVNSIK]

- MIC [5]: ≥ 62.6 µM
- MIC [6]: ≥ 62.6 µM
SMILES: CC[C@H](C)[C@H](NC(=O)[C@H](Cc1ccc(O)cc1)NC(=O)[C@@H](NC(=O)[C@@H]1CCCN1C(=O)[C@H](CCCN=C(N)N)NC(=O)[C@H](CC(N)=O)NC(=O)[C@H](CC(N)=O)NC(=O)CN)C(C)C)C(=O)N[C@@H](C)C(=O)N[C@@H](CCC(N)=O)C(=O)N1CCC[C@H]1C(=O)N[C@@H](CCCN=C(N)N)C(=O)N1CCC[C@H]1C(=O)N1CCC[C@H]1C(=O)N[C@@H](Cc1cnc[nH]1)C(=O)N1CCC[C@H]1C(=O)N[C@@H](C)C(=O)N[C@@H](CC(C)C)C(N)=O [GNNRPVYIAQPRPPHPAL]

- MIC [7]: 1.41 µM (≈ 3.83 µg/mL)
- MIC [8]: ≥ 32 µM
- MIC [9]: 11.3 µM (≈ 30.6 µg/mL)
- MIC [10]: 1 µM (≈ 2.71 µg/mL)
- MIC [11]: 16 µM (≈ 43.3 µg/mL)
SMILES: CC[C@H](C)[C@H](NC(=O)[C@@H]1CCCN1C(=O)[C@H](CCC(N)=O)NC(=O)[C@@H](NC(=O)[C@H](CC(C)C)NC(=O)[C@H](CCCCN)NC(=O)[C@@H]1CCCN1C(=O)CNC(=O)[C@H](CC(C)C)NC(=O)[C@H](CCC(N)=O)NC(=O)[C@H](CCSC)NC(=O)[C@H](C)NC(=O)[C@H](CCCCN)NC(=O)[C@H](CCCN=C(N)N)NC(=O)[C@H](CC(C)C)NC(=O)[C@@H](NC(=O)[C@H](CCCCN)NC(=O)CNC(=O)[C@H](Cc1ccccc1)NC(=O)[C@@H](NC(=O)[C@@H]1CCCN1C(=O)[C@H](CC(C)C)NC(=O)[C@H](Cc1c[nH]c2ccccc12)NC(=O)CN)[C@@H](C)O)[C@@H](C)CC)[C@@H](C)CC)C(=O)O [GWLPTFGKILRKAMQLGPKLIQPI]

- MIC [12]: 65 µM (≈ 96.9 µg/mL)
- MIC [13]: 2.5 µM (≈ 3.73 µg/mL)
- MIC [14]: 65 µM (≈ 96.9 µg/mL)
- MIC [15]: 8 µM (≈ 11.9 µg/mL)
- MIC [16]: 5 µM (≈ 7.45 µg/mL)
- MIC [17]: 7.8 µM (≈ 11.6 µg/mL)
SMILES: CC[C@H](C)[C@H](NC(=O)[C@H](C)NC(=O)[C@H](CCCCN)NC(=O)[C@H](Cc1c[nH]c2ccccc12)NC(=O)[C@H](CC(N)=O)NC(=O)[C@@H](N)CCCCN)C(=O)N[C@@H](CC(C)C)C(=O)N[C@@H](CCCCN)C(=O)N[C@@H](Cc1cnc[nH]1)C(=O)N[C@H](C(=O)N[C@H](C(=O)N[C@@H](CCCCN)C(N)=O)[C@@H](C)CC)[C@@H](C)CC [KNWKAILKHIIK]

- MIC [12]: 10.6 µM (≈ 14.9 µg/mL)
- MIC [13]: 1.3 µM (≈ 1.83 µg/mL)
- MIC [14]: 51.7 µM (≈ 72.6 µg/mL)
- MIC [15]: 7.3 µM (≈ 10.3 µg/mL)
- MIC [16]: 1.5 µM (≈ 2.11 µg/mL)
- MIC [17]: 3.7 µM (≈ 5.2 µg/mL)
SMILES: CC[C@H](C)[C@H](NC(=O)[C@H](C)NC(=O)CNC(=O)[C@H](Cc1c[nH]c2ccccc12)NC(=O)[C@H](CC(N)=O)NC(=O)[C@@H](N)CC(C)C)C(=O)N[C@@H](CC(C)C)C(=O)N[C@@H](CCCCN)C(=O)N[C@@H](Cc1cnc[nH]1)C(=O)N[C@H](C(=O)N[C@H](C(=O)N[C@@H](CCCCN)C(N)=O)[C@@H](C)CC)[C@@H](C)CC [LNWGAILKHIIK]

- MIC [1]: 0.0591 µM (≈ 0.15 µg/mL)
SMILES: CC[C@H](C)[C@H](NC(=O)[C@H](CCCN=C(N)N)NC(=O)[C@H](CCCN=C(N)N)NC(=O)[C@@H]1CCCN1C(=O)[C@H](Cc1c[nH]c2ccccc12)NC(=O)[C@H](CCCN=C(N)N)NC(=O)[C@@H]1CCCN1C(=O)[C@H](CCCN=C(N)N)NC(=O)[C@@H]1CCCN1C(=O)[C@H](CC(C)C)NC(=O)[C@H](Cc1ccc(O)cc1)NC(=O)[C@@H]1CCCN1C(=O)[C@@H]1CCCN1C(=O)[C@H](CCCCN)NC(=O)[C@H](CC(=O)O)NC(=O)[C@@H](N)C(C)C)C(=O)N[C@@H](Cc1ccc(O)cc1)C(=O)N[C@@H](CC(N)=O)C(=O)N[C@@H](CCCN=C(N)N)C(=O)NCC(=O)O [VDKPPYLPRPRWPRRIYNRG]

Further lines, the compound ahead of its results:

SMILES: CC[C@H](C)[C@H](NC(=O)[C@@H](N)Cc1ccccc1)C(=O)N[C@@H](CCCN=C(N)N)C(=O)N[C@@H](Cc1c[nH]c2ccccc12)C(=O)N[C@@H](CCCN=C(N)N)C(=O)N[C@@H](Cc1ccccc1)C(=O)N[C@@H](CCCN=C(N)N)C(=O)N[C@@H](Cc1c[nH]c2ccccc12)C(=O)N[C@@H](Cc1c[nH]c2ccccc12)C(=O)N[C@@H](CCCN=C(N)N)C(=O)N[C@@H](Cc1c[nH]c2ccccc12)C(=O)N[C@@H](CCCN=C(N)N)C(=O)N[C@@H](CCCN=C(N)N)C(N)=O [FIRWRFRWWRWRR]
- MIC [1]: 2.85 µM (≈ 6 µg/mL)

SMILES: CC[C@H](C)[C@H](NC(=O)[C@H](CCCCN)NC(=O)[C@H](Cc1c[nH]c2ccccc12)NC(=O)[C@H](CCCCN)NC(=O)[C@@H](N)CCCCN)C(=O)N[C@H](C(=O)N[C@H](C(=O)N[C@H](C(=O)N[C@@H](CCCCN)C(=O)N[C@@H](Cc1c[nH]c2ccccc12)C(=O)N[C@@H](CCCCN)C(=O)N[C@@H](CCCCN)C(N)=O)[C@@H](C)CC)C(C)C)C(C)C [KKWKIVVIKWKK]
- MIC [1]: 2.53 µM (≈ 4 µg/mL)

SMILES: NCCCC[C@H](NC(=O)[C@H](CCCCN)NC(=O)[C@H](Cc1c[nH]c2ccccc12)NC(=O)[C@H](CCCCN)NC(=O)[C@H](Cc1c[nH]c2ccccc12)NC(=O)[C@H](Cc1c[nH]c2ccccc12)NC(=O)[C@@H](N)CCCCN)C(N)=O [KWWKWKK]
- MIC [1]: ≥ 229 µM

SMILES: CC[C@H](C)[C@H](NC(=O)[C@H](CCCN=C(N)N)NC(=O)[C@H](CCCN=C(N)N)NC(=O)[C@@H]1CCCN1C(=O)[C@@H]1CCCN1C(=O)[C@H](CCCN=C(N)N)NC(=O)[C@@H]1CCCN1C(=O)[C@H](CCCN=C(N)N)NC(=O)[C@@H]1CCCN1C(=O)[C@H](CC(C)C)NC(=O)[C@H](Cc1ccc(O)cc1)NC(=O)[C@@H]1CCCN1C(=O)[C@@H]1CCCN1C(=O)[C@H](CCCCN)NC(=O)[C@H](CC(=O)O)NC(=O)[C@@H](N)C(C)C)C(=O)N[C@@H](Cc1ccc(O)cc1)C(=O)N[C@@H](CC(N)=O)C(=O)N[C@@H](CCCN=C(N)N)C(=O)N[C@@H](CC(N)=O)C(=O)O [VDKPPYLPRPRPPRRIYNRN]
- MIC [5]: 6.39 µM (≈ 16 µg/mL)
- MIC [6]: 3.19 µM (≈ 8 µg/mL)

SMILES: NCCCC[C@H](NC(=O)CNC(=O)[C@H](CC(N)=O)NC(=O)[C@H](CCCCN)NC(=O)[C@H](Cc1c[nH]c2ccccc12)NC(=O)[C@H](CCCCN)NC(=O)[C@H](Cc1c[nH]c2ccccc12)NC(=O)[C@H](CCCCN)NC(=O)[C@@H](N)Cc1c[nH]c2ccccc12)C(=O)N[C@@H](Cc1c[nH]c2ccccc12)C(=O)N[C@@H](CCCCN)C(=O)N[C@@H](Cc1c[nH]c2ccccc12)C(=O)N[C@@H](CCCCN)C(=O)N[C@@H](Cc1c[nH]c2ccccc12)C(=O)O [WKWKWKNGKWKWKW]
- MIC [18]: 4 µM (≈ 8.3 µg/mL)
- MIC [19]: 32 µM (≈ 66.4 µg/mL)
- MIC [7]: 2 µM (≈ 4.15 µg/mL)
- MIC [20]: 4 µM (≈ 8.3 µg/mL)
- MIC [21]: 16 µM (≈ 33.2 µg/mL)
- MIC [22]: 8 µM (≈ 16.6 µg/mL)
